Patent EP0003788B1, “Glycofuranosyl-nitrosourea derivatives, process for their manufacture and their pharmaceutical preparations” (CIBA-GEIGY AG, priority 1978, dated 1979)

Key:
Leukämie L 1210 = test: Prolongation of life, leukaemia L 1210 in mice; type: in vivo, Mäusen
Protocol: So bewirken sie in Dosen von 25-500 mg/kg i.p. eine starke Hemmung des Tumorwachstums bei Mäusen mit z.B. Ehrlich-Ascites-Karzinom und bei Ratten mit z.B. Walker CaSa 256. Analoge Dosen bewirken eine Lebensverlängerung gegenüber Kontrollen bei Mäusen mit z.B. Leukämie L 1210.

Walker CaSa 256 = test: Inhibition of tumour growth, Walker CaSa 256 in rats; type: in vivo, Ratten
[1] = Tolerability and side effects on treatment; type: in vivo
Ehrlich-Ascites-Karzinom = test: Inhibition of tumour growth, Ehrlich ascites carcinoma in mice; type: in vivo, Mäusen
[2] = Macroscopic organ changes in normal animals after three weeks of peroral treatment; type: in vivo

CCO[C@@H]1O[C@H]([C@@H](CNC(=O)N(C)N=O)OC)[C@H](O)[C@H]1O [Äthyl-6-desoxy-5-0-methyl-6-(3-methyl-3-nitroso-ureido)-ß-D-glucofuranosid]
Lebensverlängerung (Leukämie L 1210; 50-250 mg/kg i.p.): > 90% | Lebensverlängerung (Leukämie L 1210; p.o. application): Ähnliche Resultate | Hemmung des Wachstums der genannten Tumoren (Walker CaSa 256; 50-250 mg/kg i.p., rats with Walker CaSa 256): 80-100% | Hemmung des Wachstums der genannten Tumoren (Walker CaSa 256; p.o. application, Walker CaSa 256): Ähnliche Resultate | Nebenwirkungen ([1]; also on prolonged treatment): nicht festzustellen | Verträglichkeit ([1]; in vivo): gut | Hemmung des Wachstums der genannten Tumoren (Ehrlich-Ascites-Karzinom; 50-250 mg/kg i.p., mice with Ehrlich ascites carcinoma): 80-100% | Hemmung des Wachstums der genannten Tumoren (Ehrlich-Ascites-Karzinom; p.o. application, Ehrlich ascites carcinoma): Ähnliche Resultate | Organveränderungen [2]: keine Organveränderungen
